Results reported in US11613522B2, “Herbicidally active 3-phenylisoxazoline-5-carboxamides of tetrahydro- and dihydrofurancarboxamides” (BAYER AKTIENGESELLSCHAFT, priority 2017, dated 2023).

Key:
Type in all cases: in vivo
Hordeum murinum [1] = test: Pre-emergence herbicidal activity against HORMU; conditions: dosage 80 g/ha
How it was run: (§1)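 Seeds sown in pots and covered with soil; compounds formulated as WP or EC were sprayed onto the soil surface as aqueous suspension/emulsion with 0.5% additive at 600 l/ha water. Greenhouse growth; visual percent activity versus untreated controls after about 3 weeks (100% = plants dead, 0% = like control).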

Alopecurus myosuroides [2] = test: Pre-emergence herbicidal activity against ALOMY; conditions: dosage 80 g/ha, scored visually after about 3 weeks vs untreated controls
How it was run: as §1

Veronica persica [3] = test: Pre-emergence herbicidal activity against VERPE; conditions: dosage 80 g/ha
How it was run: as §1

[4] = Pre-emergence herbicidal action against harmful plants (summary of the tables); conditions: 504 h, application rate of 0.08 kg of active substance or less per hectare, read-out: herbicidal action, pre-emergence treatment (very good activity)
From the text: (§2) 1. Pre-emergence herbicidal action against harmful plants and crop plant compatibility Seeds of monocotyledonous and dicotyledonous weed plants and crop plants are placed in plastic or wood fiber pots and covered with soil. The compounds of the invention, formulated in the form of wettable powders (WP) or as emulsion concentrates (EC), are then applied onto the surface of the covering soil as aqueous suspension or emulsion with addition of 0.5% additive at a water application rate of 600 l/ha (converted). After the treatment, the pots are placed in a greenhouse and kept under good growth conditions for the trial plants. After about 3 weeks, the effect of the preparations is scored visually in comparison with untreated controls as percentages. For example, 100% activity=the plants have died, 0% activity=like control plants.
As shown by the results, compounds according to the invention such as, for example, the compounds No. I-02 and other compounds from the tables (I-05, I-10, I-11, I-12, I-13, I-14, I-15, I-16, I-17, I-18, I-19, I-20, I-21, I-22, I-23, I-24, I-25, I-26, I-27, I-28, I-29) have, when used for pre-emergence treatment, very good activity (80% to 100% herbicidal action) against harmful plants such as Abutilon theophrasti, Alopecurus myosuroides, Amaranthus retroflexus, Avena fatua, Cyperus esculentus, Echinochloa crus-galli, Hordeum murinum, Lolium rigidum, Pharbitis purpurea, Polygonum convolvulus, Setaria viridis, Stellaria media, Veronica persica and Viola tricolor at an application rate of 0.08 kg of active substance or less per hectare.

Avena fatua [5] = test: Pre-emergence herbicidal activity against AVEFA; conditions: dosage 80 g/ha, scored visually after about 3 weeks vs untreated controls
How it was run: as §1

Alopecurus myosuroides [6] = test: Post-emergence herbicidal activity against ALOMY; conditions: dosage 320 g/ha, rated visually after about 3 weeks
How it was run: (§3)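 Percent herbicidal activity, 0% like controls and 100% dead plants, is scored visually roughly 3 weeks after foliar treatment. Treatment follows 2–3 weeks of greenhouse growth in sandy loam, at the one-leaf stage, using WP or EC preparations in water with 0.5% additive (600 l/ha).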

Polygonum convolvulus [7] = test: Pre-emergence herbicidal activity against POLCO; conditions: dosage 80 g/ha, scored visually after about 3 weeks vs untreated controls
How it was run: as §1

Echinochloa crus-galli [8] = test: Post-emergence herbicidal activity against ECHCG; conditions: dosage 320 g/ha, rated visually after about 3 weeks
How it was run: as §3

Lolium rigidum [9] = test: Post-emergence herbicidal activity against LOLRI; conditions: dosage 320 g/ha, rated visually after about 3 weeks
How it was run: as §3

Echinochloa crus-galli [10] = test: Pre-emergence herbicidal activity against ECHCG; conditions: dosage 80 g/ha, scored visually after about 3 weeks vs untreated controls
From the text: as §2, with “control plants. [table]” for “control plants.”

Abutilon theophrasti = test: Post-emergence herbicidal activity against ABUTH; conditions: dosage 320 g/ha, rated visually after about 3 weeks
How it was run: as §3

Polygonum convolvulus [11] = test: Post-emergence herbicidal activity against POLCO; conditions: dosage 320 g/ha, rated visually after about 3 weeks
How it was run: as §3

Hordeum murinum [12] = test: Post-emergence herbicidal activity against HORMU; conditions: dosage 320 g/ha, rated visually after about 3 weeks
How it was run: as §3

Lolium rigidum [13] = test: Pre-emergence herbicidal activity against LOLRI; conditions: dosage 80 g/ha, scored visually after about 3 weeks vs untreated controls
How it was run: as §1

Amaranthus retroflexus [14] = test: Pre-emergence herbicidal activity against AMARE; conditions: dosage 80 g/ha, scored visually after about 3 weeks vs untreated controls
How it was run: as §1

Viola tricolor [15] = test: Post-emergence herbicidal activity against VIOTR; conditions: dosage 320 g/ha, rated visually after about 3 weeks
How it was run: as §3

Viola tricolor [16] = test: Pre-emergence herbicidal activity against VIOTR; conditions: dosage 80 g/ha, scored visually after about 3 weeks vs untreated controls
How it was run: as §1

Amaranthus retroflexus [17] = test: Post-emergence herbicidal activity against AMARE; conditions: dosage 320 g/ha, rated visually after about 3 weeks
How it was run: as §3

Pharbitis purpurea [18] = test: Pre-emergence herbicidal activity against PHBPU; conditions: dosage 80 g/ha, scored visually after about 3 weeks vs untreated controls
From the text: as §2, with “control plants. [table]” for “control plants.”

Stellaria media [19] = test: Pre-emergence herbicidal activity against STEME; conditions: dosage 80 g/ha, scored visually after about 3 weeks vs untreated controls
How it was run: as §1

Veronica persica [20] = test: Post-emergence herbicidal activity against VERPE; conditions: dosage 320 g/ha, rated visually after about 3 weeks
How it was run: as §3

Pharbitis purpurea [21] = test: Post-emergence herbicidal activity against PHBPU; conditions: dosage 320 g/ha, rated visually after about 3 weeks
How it was run: as §3

Avena fatua [22] = test: Post-emergence herbicidal activity against AVEFA; conditions: dosage 320 g/ha, rated visually after about 3 weeks
How it was run: as §3

Setaria viridis [23] = test: Pre-emergence herbicidal activity against SETVI; conditions: dosage 80 g/ha, scored visually after about 3 weeks vs untreated controls
How it was run: as §1

Stellaria media [24] = test: Post-emergence herbicidal activity against STEME; conditions: dosage 320 g/ha, rated visually after about 3 weeks
How it was run: as §3

Setaria viridis [25] = test: Post-emergence herbicidal activity against SETVI; conditions: dosage 320 g/ha, rated visually after about 3 weeks
How it was run: as §3

Structure (SMILES): C=C[C@]1(C(=O)N[C@@H]2CO[C@H](C(=O)NOCC)C2)CC(c2cc(F)cc(F)c2)=NO1 (mixture of isomers) [Example I-12, (5S)-3-(3,5-difluorophenyl)-N-[cis-5-(ethoxycarbamoyl)tetrahydrofuran-3-yl]-5-vinyl-4H-isoxazole-5-carboxamide]
- pest or weed control at 80 g/ha (Hordeum murinum [1]; Hordeum murinum, 504 h): 100%
- pest or weed control at 80 g/ha (Alopecurus myosuroides [2]; Alopecurus myosuroides, 504 h): 100%
- pest or weed control at 80 g/ha (Veronica persica [3]; Veronica persica, 504 h): 100%
- pest or weed control at 80 g/ha [4]: 80 to 100%
- pest or weed control at 80 g/ha (Avena fatua [5]; Avena fatua, 504 h, read-out: Pre-emergence herbicidal activity in % against AVEVA (AVEFA)): 100%
- pest or weed control at 320 g/ha (Alopecurus myosuroides [6]; Alopecurus myosuroides, 504 h): 90%
- pest or weed control at 80 g/ha (Polygonum convolvulus [7]; Fallopia convolvulus, 504 h): 100%
- pest or weed control at 320 g/ha (Echinochloa crus-galli [8]; Echinochloa crus-galli, 504 h): 90%
- pest or weed control at 320 g/ha (Lolium rigidum [9]; Lolium rigidum, 504 h): 90%
- pest or weed control at 80 g/ha (Echinochloa crus-galli [10]; Echinochloa crus-galli, 504 h): 100%
- pest or weed control at 320 g/ha (Abutilon theophrasti; Abutilon theophrasti, 504 h): 80%
- pest or weed control at 320 g/ha (Polygonum convolvulus [11]; Fallopia convolvulus, 504 h): 80%
- pest or weed control at 320 g/ha (Hordeum murinum [12]; Hordeum murinum, 504 h): 90%
- pest or weed control at 80 g/ha (Lolium rigidum [13]; Lolium rigidum, 504 h): 100%
- pest or weed control at 80 g/ha (Amaranthus retroflexus [14]; Amaranthus retroflexus, 504 h): 100%
- pest or weed control at 320 g/ha (Viola tricolor [15]; Viola tricolor, 504 h): 80%
- pest or weed control at 80 g/ha (Viola tricolor [16]; Viola tricolor, 504 h): 100%
- pest or weed control at 320 g/ha (Amaranthus retroflexus [17]; Amaranthus retroflexus, 504 h): 80%
- Pre-emergence herbicidal activity in % against PHBPU (Pharbitis purpurea [18]): 90%
- pest or weed control at 80 g/ha (Stellaria media [19]; Stellaria media, 504 h): 100%
- pest or weed control at 320 g/ha (Veronica persica [20]; Veronica persica, 504 h): 80%
- pest or weed control at 320 g/ha (Pharbitis purpurea [21]; Ipomoea purpurea, 504 h): 80%
- pest or weed control at 320 g/ha (Avena fatua [22]; Avena fatua, 504 h): 100%
- pest or weed control at 80 g/ha (Setaria viridis [23]; Setaria viridis, 504 h): 100%
- pest or weed control at 320 g/ha (Stellaria media [24]; Stellaria media, 504 h): 90%

Structure (SMILES): CONC(=O)[C@@H]1C[C@H](NC(=O)[C@@]2(C)CC(c3cc(F)cc(F)c3)=NO2)CO1 [Example I-24]
- Pre-emergence herbicidal activity in % against HORMU (Hordeum murinum [1]): 100%
- Pre-emergence herbicidal activity in % against ALOMY (Alopecurus myosuroides [2]): 100%
- Pre-emergence herbicidal activity in % against VERPE (Veronica persica [3]): 90%
- Pre-emergence herbicidal activity in % against AVEVA (AVEFA) (Avena fatua [5]): 100%
- Post-emergence herbicidal activity in % against ALOMY (Alopecurus myosuroides [6]): 100%
- Pre-emergence herbicidal activity in % against POLCO (Polygonum convolvulus [7]): 90%
- Post-emergence herbicidal activity in % against ECHCG (Echinochloa crus-galli [8]): 100%
- Post-emergence herbicidal activity in % against LOLRI (Lolium rigidum [9]): 100%
- Pre-emergence herbicidal activity in % against ECHCG (Echinochloa crus-galli [10]): 90%
- Post-emergence herbicidal activity in % against ABUTH (Abutilon theophrasti): 80%
- Post-emergence herbicidal activity in % against POLCO (Polygonum convolvulus [11]): 80%
- Post-emergence herbicidal activity in % against HORMU (Hordeum murinum [12]): 100%
- Pre-emergence herbicidal activity in % against LOLRI (Lolium rigidum [13]): 100%
- Pre-emergence herbicidal activity in % against AMARE (Amaranthus retroflexus [14]): 100%
- Post-emergence herbicidal activity in % against VIOTR (Viola tricolor [15]): 90%
- Pre-emergence herbicidal activity in % against VIOTR (Viola tricolor [16]): 90%
- Post-emergence herbicidal activity in % against AMARE (Amaranthus retroflexus [17]): 80%
- Post-emergence herbicidal activity in % against SETVI (Setaria viridis [25]): 80%
- Pre-emergence herbicidal activity in % against PHBPU (Pharbitis purpurea [18]): 90%
- Pre-emergence herbicidal activity in % against STEME (Stellaria media [19]): 90%
- Post-emergence herbicidal activity in % against VERPE (Veronica persica [20]): 80%
- Post-emergence herbicidal activity in % against PHBPU (Pharbitis purpurea [21]): 90%
- Post-emergence herbicidal activity in % against AVEFA (Avena fatua [22]): 100%
- Pre-emergence herbicidal activity in % against SETVI (Setaria viridis [23]): 100%
- Post-emergence herbicidal activity in % against STEME (Stellaria media [24]): 100%
